Source: patent US9827177B2, “Antiperspirant products with protein and antiperspirant salts” (Colgate-Palmolive Company, priority 2012, dated 2017)

Columns and labels:
[1] = Precipitation of ZLC-BSA mixture solutions at adjusted pH; type: physicochemical; details: pure solution, pH 3-11
Text: The pH of the solutions is adjusted to 3, 4, 5, 6, 7, 8, 9, 10 and 11 to observe the formation of precipitation. Precipitate is formed in all solutions at pH ranging from 3 to 5. […] All solutions appear clear at pH 8. A small amount of precipitation is also found at pH 9 and 10. At pH 11, precipitate is formed in all solutions. […] The formation of precipitation in acid pH requires both ZLC and BSA to be present in solution.

[2] = molecular target: T1, Bovine Serum Albumin (BSA) (Bos taurus, UniProt P02769); assay: Flocculation of ZLC in the presence of protein (turbidity, pH); type: physicochemical; details: 5 hours at 37° C.
T1 construct: is a serum albumin protein derived from the blood of cattle; from tissue; host or cells: blood of cattle
Method: Turbidity and pH of solutions are measured 5 hours after the mixtures were placed in a 37° C. oven, and the results are shown in Table 3.

[3] = Hydrolysis reaction: turbidity and pH of diluted ZLC solutions before and after aging; type: physicochemical; details: for pH after aging / turbidity after aging (NTU): aged 37° C. over 5 hours; for initial turbidity (NTU): before aging
Method: Hydrolysis reaction: A 185 mg/ml ZLC solution is prepared and diluted several-fold and aged in a 37° C. oven over 5 hours for turbidity studies. […] Turbidity of the solutions is measured using a nephelometer, results being given in nephelometric turbidity units (NTU).
The precipitates formed in the 8×, 16× and 32× diluted solutions are collected by centrifugation and identified as crystalline ZnO by PXRD. From the supernatant, a single crystal is grown and shown by X-ray diffraction to be Lysine Monohydrochloride Dihydrate (Lysine.HCl.2H2O).

[4] = test system: bacterial lawn on TSA plates; assay: Zone of inhibition test; type: cell-based; details: 20 μl on filter paper discs, 20 hours at 37° C.; compared with zinc oxide and lysine hydrochloride
Method: A zone of inhibition test is conducted on several materials: zinc oxide, lysine hydrochloride, and ZLC. The method involves making a lawn of freshly prepared bacterial culture on TSA (trypticase soy agar) plates. Sterile filter paper discs are seeded with 20 μl of test sample (supernatant or mixture). Sample-coated filter paper discs are air dried and applied onto the bacterial lawn on TSA plates. Plates are incubated for 20 hours at 37° C.

[5] = sample 1: DI water, 0% BSA, ZLC about 0.98% w/w or 15 mg/ml
[6] = sample 2: 1% BSA, pH 7.2, ZLC about 0.96% w/w or 15 mg/ml
[7] = sample 3: 1% BSA, pH adjusted to 5.1, ZLC about 0.96% w/w or 15 mg/ml

T1 sequence (P02769 25-607): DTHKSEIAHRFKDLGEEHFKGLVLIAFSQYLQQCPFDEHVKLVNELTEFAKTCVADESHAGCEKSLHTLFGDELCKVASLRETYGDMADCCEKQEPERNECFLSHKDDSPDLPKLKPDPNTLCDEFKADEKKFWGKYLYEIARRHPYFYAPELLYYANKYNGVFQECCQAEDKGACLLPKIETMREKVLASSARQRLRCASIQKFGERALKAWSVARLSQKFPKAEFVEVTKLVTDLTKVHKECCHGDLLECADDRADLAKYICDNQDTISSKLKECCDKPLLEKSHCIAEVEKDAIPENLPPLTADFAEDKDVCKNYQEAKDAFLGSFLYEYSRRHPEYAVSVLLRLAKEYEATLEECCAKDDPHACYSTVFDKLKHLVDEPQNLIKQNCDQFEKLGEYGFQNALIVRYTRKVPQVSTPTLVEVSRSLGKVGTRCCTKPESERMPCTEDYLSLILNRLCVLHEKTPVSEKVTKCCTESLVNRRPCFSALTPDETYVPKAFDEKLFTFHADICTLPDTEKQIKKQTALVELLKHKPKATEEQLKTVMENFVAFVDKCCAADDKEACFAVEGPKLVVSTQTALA

NCCCCC(N)C(=O)O.NCCCCC(N)C(=O)O.O.O.[Cl-].[Cl-].[Zn+2] (stereo not drawn) [ZLC, zinc-lysine-HCl complex]
formation of precipitation [1]: No precipitation
observation [2, 5]: becomes slightly cloudy
pH [2, 5]: 8
Turbidity (NTU) [2, 6]: >1000 NTU
observation [2, 6]: a lot white precipitate
pH [2, 6]: 8.2
Turbidity (NTU) [2, 7]: >1000 NTU
observation [2, 7]: a lot white precipitate
pH [2, 7]: 8
pH after aging ([3]; 5.78 mg/ml ZLC solution): 8
turbidity after aging (NTU) ([3]; 5.78 mg/ml ZLC solution): >1000 NTU
pH after aging ([3]; 11.56 mg/ml ZLC solution): 7.8
turbidity after aging (NTU) ([3]; 11.56 mg/ml ZLC solution): >1000 NTU
pH after aging ([3]; 23.125 mg/ml ZLC solution): 7.7
initial turbidity (NTU) ([3]; 23.125 mg/ml ZLC solution): 0.7 NTU
pH after aging ([3]; 46.25 mg/ml ZLC solution): 7.4
turbidity after aging (NTU) ([3]; 46.25 mg/ml ZLC solution): 2.8 NTU
initial turbidity (NTU) ([3]; 46.25 mg/ml ZLC solution): 1.5 NTU
pH after aging ([3]; 92.5 mg/ml ZLC solution): 7
turbidity after aging (NTU) ([3]; 92.5 mg/ml ZLC solution): 2.6 NTU
initial turbidity (NTU) ([3]; 92.5 mg/ml ZLC solution): 2.8 NTU
observation on dilution of the solution ([3]; 185 mg/ml ZLC solution diluted several-fold): A white precipitate forms as the solution is diluted
pH after aging ([3]; 185 mg/ml ZLC solution): 6.8
turbidity after aging (NTU) ([3]; 185 mg/ml ZLC solution): 4.1 NTU
initial turbidity (NTU) ([3]; 185 mg/ml ZLC solution): 4.7 NTU
stability of the complex upon dilution ([3]; 8×, 16× and 32× diluted solutions, precipitate identified as ZnO by PXRD): disassociates upon dilution, with consequent precipitation of zinc oxide
antibacterial activity (zone of inhibition) [4]: better antibacterial activity than zinc oxide alone or lysine hydrochloride alone
